Experiment [1] concerns Staphylococcus aureus. The experiment in a line: Antibacterial activity against methicillin-resistant Staphylococcus aureus after 24 hrs by silicone disk biofilm colonization method. It is filed as functional, organism-based.
Experiment [2] deals with Staphylococcus aureus. The experiment in a line: Antibacterial activity against methicillin-resistant Staphylococcus aureus at 4 hrs daily exposure for 2 days. Format: functional, organism-based.
Experiment [3] relates to Staphylococcus aureus. Put plainly: Antibacterial activity against methicillin-resistant Staphylococcus aureus at 4 hrs daily exposure for 3 days. Format: functional, organism-based.
The subject of experiment [4] is Staphylococcus aureus. Put plainly: Antibacterial activity against methicillin-resistant Staphylococcus aureus at 4 hrs daily exposure for 5 day. Format: functional, organism-based.
Experiment [5] concerns Staphylococcus aureus. The experiment in a line: Antibacterial activity against methicillin-resistant Staphylococcus aureus 4913 at 4 hrs daily exposure for 5 days by broth microdilution method. It is filed as functional. Background: Broth dilution looks for growth in wells or tubes with falling amounts of substance.
For experiment [6], the system named is Staphylococcus aureus. Put plainly: Antibacterial activity against methicillin-resistant Staphylococcus aureus 4930 at 4 hrs daily exposure for 5 days by broth microdilution method. Format: functional.
For experiment [7], the system named is Staphylococcus aureus. Put plainly: Antibacterial activity against methicillin-resistant Staphylococcus aureus 5004 at 4 hrs daily exposure for 5 days by broth microdilution method. Format: functional.
The test system of experiment [8] is Staphylococcus aureus. Put plainly: Antibacterial activity against methicillin-resistant Staphylococcus aureus 4803 at 4 hrs daily exposure for 1 day by broth microdilution method. It is filed as functional.
In experiment [9] the test system is Staphylococcus aureus. Put plainly: Antibacterial activity against methicillin-resistant Staphylococcus aureus 4913 at 4 hrs daily exposure for 1 day by broth microdilution method. It is filed as functional.
Experiment [10] deals with Staphylococcus aureus. The experiment in a line: Antibacterial activity against methicillin-resistant Staphylococcus aureus 4930 at 4 hrs daily exposure for 1 day by broth microdilution method. Format: functional.
In experiment [11] the test system is Staphylococcus aureus. The experiment in a line: Antibacterial activity against methicillin-resistant Staphylococcus aureus 5098 at 4 hrs daily exposure for 1 day by broth microdilution method. It is filed as functional.
The subject of experiment [12] is Staphylococcus aureus. Put plainly: Antibacterial activity against methicillin-resistant Staphylococcus aureus 5004 at 4 hrs daily exposure for 1 day by broth microdilution method. It is filed as functional.
Experiment [13] has as its system Staphylococcus aureus. The experiment in a line: Antibacterial activity against methicillin-resistant Staphylococcus aureus 859 at 4 hrs daily exposure for 1 day by broth microdilution method. It is filed as functional.
The test system of experiment [14] is Staphylococcus aureus. Put plainly: Antibacterial activity against methicillin-resistant Staphylococcus aureus 4875 at 4 hrs daily exposure for 1 day by broth microdilution method. Format: functional.
Experiment [15] has as its system Staphylococcus aureus. The experiment in a line: Antibacterial activity against methicillin-resistant Staphylococcus aureus 4342 at 4 hrs daily exposure for 1 day by broth microdilution method. Format: functional.
The subject of experiment [16] is Staphylococcus aureus. Put plainly: Antibacterial activity against methicillin-resistant Staphylococcus aureus 293 at 4 hrs daily exposure for 1 day by broth microdilution method. Format: functional.
The test system of experiment [17] is Staphylococcus aureus. The experiment in a line: Antibacterial activity against methicillin-resistant Staphylococcus aureus 789 at 4 hrs daily exposure for 1 day by broth microdilution method. Format: functional.
Experiment [18] has as its system Staphylococcus aureus. The experiment in a line: Antibacterial activity against methicillin-resistant Staphylococcus aureus 4803 at 4 hrs daily exposure for 5 days by broth microdilution method. It is filed as functional.
The subject of experiment [19] is Staphylococcus aureus. The experiment in a line: Antibacterial activity against methicillin-resistant Staphylococcus aureus 4875 at 4 hrs daily exposure for 5 days by broth microdilution method. Format: functional.
Experiment [20] relates to Staphylococcus aureus. The experiment in a line: Antibacterial activity against methicillin-resistant Staphylococcus aureus 4342 at 4 hrs daily exposure for 5 days by broth microdilution method. Format: functional.
For experiment [21], the system named is Staphylococcus aureus. Put plainly: Antibacterial activity against methicillin-resistant Staphylococcus aureus 293 at 4 hrs daily exposure for 5 days by broth microdilution method. It is filed as functional.
Experiment [22] has as its system Staphylococcus aureus. The experiment in a line: Antibacterial activity against methicillin-resistant Staphylococcus aureus 789 at 4 hrs daily exposure for 5 days by broth microdilution method. It is filed as functional, organism-based.
Experiment [23] deals with Staphylococcus aureus. Put plainly: Antibacterial activity against methicillin-resistant Staphylococcus aureus 5098 at 4 hrs daily exposure for 5 days by broth microdilution method. It is filed as functional.
Experiment [24] deals with Staphylococcus aureus. Put plainly: Antibacterial activity against methicillin-resistant Staphylococcus aureus 859 at 4 hrs daily exposure for 5 days by broth microdilution method. Format: functional.

The record followed here is ChEMBL document CHEMBL1145511, “Comparative activities of daptomycin, linezolid, and tigecycline against catheter-related methicillin-resistant Staphylococcus bacteremic isolates embedded in biofilm” (2007).

As usually defined, the MIC is the lowest concentration found to suppress growth.

The structures appear in SMILES notation. In brackets after ≈: the same amount, converted by molar mass. Activity calls are given as the source filed them. No cut-off for these calls is given here.

With `CCCCCCCCCC(=O)N[C@@H](Cc1c[nH]c2ccccc12)C(=O)N[C@H](CC(N)=O)C(=O)N[C@@H](CC(=O)O)C(=O)N[C@@H]1C(=O)NCC(=O)N[C@@H](CCCN)C(=O)N[C@@H](CC(=O)O)C(=O)N[C@H](C)C(=O)N[C@@H](CC(=O)O)C(=O)NCC(=O)N[C@H](CO)C(=O)N[C@@H]([C@H](C)CC(=O)O)C(=O)N[C@@H](CC(=O)c2ccccc2N)C(=O)O[C@@H]1C`, the result in the experiment on Staphylococcus aureus [1] and in the experiment on Staphylococcus aureus [2] was Active.

Consider `CN(C)c1cc(NC(=O)CNC(C)(C)C)c(O)c2c1C[C@H]1C[C@H]3[C@H](N(C)C)C(O)=C(C(N)=O)C(=O)[C@@]3(O)C(O)=C1C2=O`, for which the result with Staphylococcus aureus [1] and in the experiment on Staphylococcus aureus [3] was Active.

On to `CN(C)c1ccc(O)c2c1C[C@H]1C[C@H]3[C@H](N(C)C)C(O)=C(C(N)=O)C(=O)[C@@]3(O)C(O)=C1C2=O`, for which the outcome in the experiment with Staphylococcus aureus [1] and in the experiment with Staphylococcus aureus [2] was Active.

Consider `CN[C@H](CC(C)C)C(=O)N[C@H]1C(=O)N[C@@H](CC(N)=O)C(=O)N[C@H]2C(=O)N[C@H]3C(=O)N[C@H](C(=O)N[C@H](C(=O)O)c4cc(O)cc(O)c4-c4cc3ccc4O)[C@H](O)c3ccc(c(Cl)c3)Oc3cc2cc(c3O[C@@H]2O[C@H](CO)[C@@H](O)[C@H](O)[C@H]2O[C@H]2C[C@](C)(N)[C@H](O)[C@H](C)O2)Oc2ccc(cc2Cl)[C@H]1O`, for which, in the experiment with Staphylococcus aureus [4], the result was inactive.

Consider `CC(=O)NC[C@H]1CN(c2ccc(N3CCOCC3)c(F)c2)C(=O)O1` [LINEZOLID], for which the MIC was determined as 8 µg/mL (≈ 23.7 µM) with Staphylococcus aureus [5]; 0.5 µg/mL (≈ 1.48 µM) in the experiment on Staphylococcus aureus [8]; 0.5 µg/mL (≈ 1.48 µM) in the experiment with Staphylococcus aureus [9]; 0.5 µg/mL (≈ 1.48 µM) with Staphylococcus aureus [10]; 0.25 µg/mL (≈ 0.741 µM) in the experiment on Staphylococcus aureus [11]; 0.5 µg/mL (≈ 1.48 µM) against Staphylococcus aureus [12]. Also, the MIC was determined as 0.5 µg/mL (≈ 1.48 µM) against Staphylococcus aureus [13]; 0.5 µg/mL (≈ 1.48 µM) in the experiment on Staphylococcus aureus [14]; 1 µg/mL (≈ 2.96 µM) against Staphylococcus aureus [15]; 1 µg/mL (≈ 2.96 µM) in the experiment with Staphylococcus aureus [16]; 0.5 µg/mL (≈ 1.48 µM) against Staphylococcus aureus [17]. The result with Staphylococcus aureus [6], in the experiment with Staphylococcus aureus [7], in the experiment with Staphylococcus aureus [18], with Staphylococcus aureus [19], in the experiment on Staphylococcus aureus [20] and in the experiment with Staphylococcus aureus [21] was Active. Further, the outcome in the experiment on Staphylococcus aureus [22] was Active. Moreover, the outcome in the experiment on Staphylococcus aureus [4] was inactive.

Regarding `CO[C@H]1/C=C/O[C@@]2(C)Oc3c(C)c(O)c4c(O)c(c(/C=N/N5CCN(C)CC5)c(O)c4c3C2=O)NC(=O)/C(C)=C\C=C\[C@H](C)[C@H](O)[C@@H](C)[C@@H](O)[C@@H](C)[C@H](OC(C)=O)[C@@H]1C` [RIFAMPIN], the MIC is 128 µg/mL (≈ 156 µM) against Staphylococcus aureus [5]; under 0.06 µg/mL against Staphylococcus aureus [6]; 128 µg/mL (≈ 156 µM) against Staphylococcus aureus [23]; 128 µg/mL (≈ 156 µM) against Staphylococcus aureus [7]; under 0.06 µg/mL against Staphylococcus aureus [8]; 128 µg/mL (≈ 156 µM) against Staphylococcus aureus [9]. In addition, the MIC in the experiment with Staphylococcus aureus [10], with Staphylococcus aureus [11], against Staphylococcus aureus [12], in the experiment on Staphylococcus aureus [13], against Staphylococcus aureus [14] and with Staphylococcus aureus [15] was under 0.06 µg/mL in each case. Also, the minimum inhibitory concentration (MIC) in the experiment with Staphylococcus aureus [16] was under 0.06 µg/mL; against Staphylococcus aureus [17] it was under 0.06 µg/mL; against Staphylococcus aureus [18] it was 128 µg/mL (≈ 156 µM); against Staphylococcus aureus [24] it was 32 µg/mL (≈ 38.9 µM); against Staphylococcus aureus [19], 128 µg/mL (≈ 156 µM); against Staphylococcus aureus [20], 128 µg/mL (≈ 156 µM). In the experiment on Staphylococcus aureus [21], this molecule yielded an MIC of 128 µg/mL (≈ 156 µM). Further, the result with Staphylococcus aureus [4] was inactive. Also, the outcome in the experiment on Staphylococcus aureus [22] was Active.
